Entries after “also recorded” stand apart in the source; their conditions may differ.
Key:
[1] = system: 5-HT1A receptors; conditions: cited from earlier work
[2] = system: low attentive and low motivated rats; conditions: doses below the threshold for wet dog shake response; cited from earlier work
[3] = system: frontal cortex; conditions: healthy participants, 15 or 20 mg orally; cited from earlier work
[4] = humans, controlled setting; cited from earlier work
[5] = biological target: human 5-HT2A receptor (Homo sapiens, UniProt P28223); conditions: human versus rat receptor; cited from earlier work
[6] = system: 5-HT2 receptor; conditions: rat brain, daily administration; cited from earlier work
[7] = biological target: 5-HT2A and 5-HT2C receptors; conditions: compared with LSD; cited from earlier work
[8] = patients; psilocybin-assisted psychotherapy or supportive setting; cited from earlier work
[9] = in vitro; conditions: human, plasma
Experimental: (§1) The stock solution of test compound was prepared in DMSO and diluted at the final concentration of 200 μM.
(§2) • a. 2.5 μL of 200 μM or 1 mM test compound or control compound solution was spiked to 497.5 μL plasma to reach a final concentration of 1 μM or 5 μM. The final concentration of organic solvents was 0.5%. The assay was performed in duplicated. • b. The reaction samples were incubated at 37° C. at approximately 60 rpm in a water bath. • c. Aliquots of 50 μL were taken from the reaction samples at 0, 30, 60, 120, 180 and 240 minutes. The reaction was stopped by the addition of 7 volumes of cold acetonitrile containing internal standards (IS: 100 nM alprazolam, 200 nM imipramine, 200 nM labetalol and 2 μM ketoprofen). • d. All samples were vortexed for 2 minutes, followed by centrifugation at 3,220 g for 30 minutes to precipitate proteins. 100 μL of the supernatant was transferred to a new plate. The supernatant was diluted with ultrapure water according to the LC-MS signal response and peak shape.
(§3) Samples were Analyzed by LC-MS/MS. • LC system: Shimadzu • MS analysis: Triple Quad™ 6500+ from AB Inc (Canada) with an ESI interface • Column temperature: 40° C. • Column: Xselect® Hss T3 2.5μ (2.1×30 mm) coupled with preguard column • Mobile phase: 0.1% formic acid in water (A) and 0.1% formic acid in acetonitrile (B)
(§4) All calculations were carried out using Microsoft Excel. Remaining percentages of parent compounds at each time point were estimated by determining the peak area ratios from extracted ion chromatograms.

[10] = in vitro; conditions: rat, plasma
Experimental: as §1, §2, §3, §4

[11] = in vitro; conditions: mouse, plasma
Experimental: as §1, §2, §3, §4

Sequence of human 5-HT2A receptor (P28223 whole entry): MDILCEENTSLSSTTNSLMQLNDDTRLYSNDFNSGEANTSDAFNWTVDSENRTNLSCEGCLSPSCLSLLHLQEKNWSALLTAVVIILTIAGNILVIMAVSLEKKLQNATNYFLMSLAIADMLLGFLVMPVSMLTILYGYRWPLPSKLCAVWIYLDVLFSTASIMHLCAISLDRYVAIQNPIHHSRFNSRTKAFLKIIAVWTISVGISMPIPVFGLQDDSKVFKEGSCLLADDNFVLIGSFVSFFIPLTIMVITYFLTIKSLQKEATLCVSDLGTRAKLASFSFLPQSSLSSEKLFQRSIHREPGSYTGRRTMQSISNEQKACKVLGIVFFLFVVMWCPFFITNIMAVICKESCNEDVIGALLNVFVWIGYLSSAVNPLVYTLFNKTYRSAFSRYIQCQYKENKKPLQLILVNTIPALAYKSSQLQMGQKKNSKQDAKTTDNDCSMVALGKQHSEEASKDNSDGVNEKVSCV

For `CN(C)CCc1c[nH]c2cccc(OP(=O)(O)O)c12` [Psilocybin], the “activation of 5-HT1A receptors” value [1] is listed as “activates 5-HT1A receptors”, the task performance [2] is listed as “improved performance on the 5-choice serial reaction time and progressive ratio tasks” and the “absolute metabolic rate of glucose” value [3] is listed as “increased absolute metabolic rate of glucose in frontal, and to a lesser extent in other, cortical regions as well as in striatal and limbic subcortical structures”. For the same compound, the adverse effect [4] was “transient, delayed headache”, the “affinity for 5-HT2A receptor” value [5] was “stronger affinity for the human 5-HT2A receptor than for the rat receptor” and the 5-HT2 receptor density [6] was “reduce 5-HT2 receptor density in rat brain”. The “K(i)” value [7] was “lower K(i) for both 5-HT2A and 5-HT2C receptors than LSD” and the “relief of depression and anxiety” value [8] was “unprecedented positive relief of anxiety and depression; also recorded: significant and sustained anti-depressant and anxiolytic effects”.

In the case of `CN(C)CCc1c[nH]c2cccc(OC(=O)CCCC(=O)Oc3cccc4[nH]cc(CCN(C)C)c34)c12` [Compound I-24, Bis(3-(2-(dimethylamino)ethyl)-1H-indol-4-yl) glutarate], the remaining at 0.5 h [9] is reported as 0%, the remaining at 1 h [9] is reported as 0% and the remaining at 2 h [9] is reported as 0%. It also gave a remaining at 3 h [9] of 0%, a remaining at 4 h [9] of 0% and a remaining at 0.5 h [10] of 0%. The remaining at 1 h [10] was 0%, the remaining at 2 h [10] was 0% and the remaining at 3 h [10] was 0%. For the same compound, the remaining at 4 h [10] was 0%, the remaining at 0.5 h [11] was 0% and the remaining at 1 h [11] was 0%. The remaining at 2 h [11] was 0%, the remaining at 3 h [11] was 0% and the remaining at 4 h [11] was 0%.

— patent US20260327250A1, “3-ETHYLAMINO-INDOLE DIMERS AS SEROTONERGIC AGENTS USEFUL FOR THE TREATMENT OF DISORDERS RELATED THERETO” (MINDSET PHARMA INC., priority 2022, published 2026)
